Source: article PMC10786692 (The Journal of Clinical Investigation, 2024)
Read-outs that look alike come from different tables or passages of the source.

Experiments:
[1] = Plasma pharmacokinetics of ceralasertib (HPLC-MS/MS, NCA); type: in vivo, human; conditions: for half-life: read-out: Mean terminal elimination half-life
Experimental: Intensive PK sampling in part A occurred after a single dose from predose up to 24 to 72 hours and again at day 15 and day 29 of continuous dosing. Participants fasted for 1 hour before and 2 hours after dosing for PK assessment. In part B, sampling coincided with day 15 PD assessments. Full details are given in Supplemental Methods. […]
Evaluated PK […]
maximum observed plasma concentration (Cmax), time to Cmax (tmax), and apparent terminal half-life (t1/2) calculated as ln/lambda-z where lambda-z (lz) is the apparent terminal phase rate- […]
constant estimated by linear regression of logarithmically-transformed concentration-versus-time data. A minimum of three data points were used in calculating lz as per AstraZeneca standard operating procedures. Data from multiple dosing were used to derive accumulation ratios based on Cmax (Race Cmax) and AUC(0-8) (Rac AUC0-8) defined as the ratio between Cmax or AUC(0-8) after multiple dose and Cmax and AUC(0-8) at day 1. All PK parameters for […]
WinNonLin v8.3 software or higher where the ‘linear up/log down trapezoidal rule’ for AUC was […]
applied. […]

advanced solid tumors = assay: Antitumor response by RECIST 1.1 and duration on study; type: in vivo, human; conditions: for Patients with PR: 40 mg BD or more

C[C@@H]1COCCN1c1cc(C2([S@](C)(=N)=O)CC2)nc(-c2cc[nH]c3nccc2-3)n1 [ceralasertib]
concentration at 4 h ([1]; human, plasma, oral, 240 mg, 240 mg day 15, 4 h, read-out: Plasma concentration, individual patients): 13500 ng/mL
concentration at 8 h ([1]; human, plasma, oral, 240 mg, 240 mg day 15, 8 h, read-out: Plasma concentration, individual patients): 10200 ng/mL
concentration at 12 h ([1]; human, plasma, oral, 240 mg, 240 mg day 15, 12 h, read-out: Plasma concentration, individual patients): 9080 ng/mL
concentration at […] ([1]; human, plasma, oral, 240 mg, 240 mg day 15, […], read-out: Plasma concentration, individual patients): 11200 ng/mL
half-life ([1]; human, plasma, oral, 40 and 80 mg dose levels): 5.3 to 7.7 h
half-life ([1]; human, plasma, oral, 160 and 240 mg dose levels): 11.2 to 12.8 h
Tmax ([1]; human, plasma, oral, all doses, single and multiple dose, read-out: Median time to peak drug concentration (tmax)): 0.5 to 4 h
Exposure versus dose ([1]; single dosing, 80 to 240 mg): increased approximately proportionally
Patients with PR (advanced solid tumors; mutation of interest, 4 of 30): 13%
Patients with PR (advanced solid tumors; no mutation of interest, 1 of 11): 9%
Progressive disease, n (%) (advanced solid tumors; 160 mg BD or more, n = 49): 15 (30%)
Median duration on treatment (advanced solid tumors; 4 ATM-low patients, range 8–29): 13 weeks
Patients deriving clinical benefit (advanced solid tumors; 11 patients with oncogene-driven tumors): 3
Best overall response: progressive disease incl. clinical progression, n (%) (advanced solid tumors; 66 evaluable patients): 27 (41%)
Best overall response: stable disease incl. 1 unconfirmed PR, n (%) (advanced solid tumors; 66 evaluable patients): 34 (52%)
Best overall response: confirmed partial responses, n (%) (advanced solid tumors; 66 evaluable patients, 20–240 mg BD): 5 (8%)
Duration (advanced solid tumors; ARID1A E1387X, lobular breast carcinoma): 42 days
Duration (advanced solid tumors; ARID1A Q1188X, ovarian clear cell): 275 days
Duration (advanced solid tumors; ARID1A R693*, eccrine adenocarcinoma): 240 days
Duration (advanced solid tumors; ARID1A S1623L, cervix adenocarcinoma): 203 days
Duration (advanced solid tumors; ARID2 Y854fs, SCCHN): 697 days
Tumor shrinkage (advanced solid tumors; ARID2 frameshift-bearing HNSCC): 29%
Patients experiencing SD (advanced solid tumors; ATM-low patients): 3 of 4
Best response (advanced solid tumors; CCNE1 amplification, peritoneal carcinoma, 20 mg BD): progressive disease
Duration on study with SD (advanced solid tumors; CCNE1 amplification, serous endometrial carcinoma): 12 weeks
Duration of RECIST SD / on study (advanced solid tumors; HNSCC with ARID2 frameshift): 99 weeks
Duration of RECIST SD (advanced solid tumors; HNSCC with CCND1 amplification): 49 weeks
Duration on study (advanced solid tumors; HNSCC, MRE11 and CDKN2A mutation): 1,194 days
Duration on study (advanced solid tumors; HNSCC, RECIST PR, 40 mg BD): 106 days
Duration of RECIST SD (advanced solid tumors; HNSCC, no sequencing available): 48 weeks
Duration on study with confirmed PR (advanced solid tumors; MRE11 stop-gain R633X with CDKN2A stop-gain): more than 32 months
Duration (advanced solid tumors; PBRM S295*, SCCHN): 112 days
Median duration of response (advanced solid tumors; PR or SD, with a mutation of interest): 185.5 days
Median duration of response (advanced solid tumors; PR or SD, without a mutation of interest): 105 days
Duration of response (advanced solid tumors; PR, HNSCC with APC frameshift and TP53 mutation, 40 mg BD): 15 weeks
Duration of response (advanced solid tumors; PR, HNSCC with CDKN2A and MRE11A frameshift, 160 mg BD, remains on study): 170 weeks
Duration of response (advanced solid tumors; PR, esophageal squamous cell carcinoma, HR/Fanconi deficiency, 160 mg BD): 47 weeks
Duration of response (advanced solid tumors; PR, nasopharyngeal carcinoma, NRAS activating mutation, 240 mg BD): 14 weeks
Duration of response (advanced solid tumors; PR, ovarian clear cell carcinoma, ARID1A mutation, 160 mg BD, remains on study): 251 weeks
Median duration of response (advanced solid tumors; RECIST PR patients, IQR 14.9–251.0): 46.7 weeks
Duration of RECIST SD (advanced solid tumors; digital papillary adenocarcinoma with TP53 mutation): 51 weeks
Duration of SD (advanced solid tumors; eccrine adenocarcinoma, ARID1A R693X, CDKN2A deletion, 240 mg BD): 34 weeks
Duration on study (advanced solid tumors; esophageal squamous cell carcinoma, RECIST PR, 160 mg BD intermittent): 575 days
Duration of SD (advanced solid tumors; increased cyclin E1 by IHC, cervical adenocarcinoma): 29 weeks
Duration of SD (advanced solid tumors; increased cyclin E1 by IHC, serous endometrial carcinoma, germline BRCA1 mutation): 16 weeks
Duration on study (advanced solid tumors; nasopharyngeal carcinoma, NRAS activation, RECIST PR, 240 mg BD): 341 days
Duration on study (advanced solid tumors; pancreatic adenocarcinoma, unconfirmed PR, 160 mg BD intermittent): 480 days
Duration on study with SD (advanced solid tumors; pathogenic ATM mutation R1898fsX with coexisting ARID1A mutation): 39 weeks
Participants deriving clinical benefit (advanced solid tumors; seven participants with SWI/SNF pathway aberrations): 6
Duration of response (advanced solid tumors; unconfirmed PR, TP53 mutant pancreatic adenocarcinoma, 160 mg BD): 15 weeks
